Results published in US20090042987A1, “TREATMENT OF NEUROPATHIC PAIN” (priority 2007, published 2009).
“Also recorded” adds a separate entry of the source.

Experiments:
Type in all cases: in vivo, rat
[1] = system: drug-naïve STZ-diabetic rats; assay: von Frey paw withdrawal thresholds, drug-naïve STZ-diabetic rats, Example 2
Procedure: (§1) Experimental Animals Ethical approval for this study was obtained from the Animal Experimentation Ethics Committee of The University of Queensland. Adult male Sprague-Dawley (SD) rats (222±4 g) were used for this study. Rats were housed in a temperature controlled room (21+2.0 C) with a 12/12 hour light/dark cycle. Food and water were available ad libitum. Initiation of drug administration occurred at 8-11 weeks post-STZ administration for rats in Experiment 1 (PCT-001) and at 10-12 weeks post-STZ administration for rats in Experiment 2 (PCT-007).
(§2) Test Article Tranilast was supplied by the Sponsor and stored at −4° C. until use. Gabapentin (100 mg/kg, dissolved in water for injection) was utilized as the positive control for this study.
(§3) Test Article and Vehicle Preparation Test article formulations were prepared freshly on the day of administration by weighing the appropriate amount of bulk powder and suspending it in the required volume of vehicle. Carboxymethyl cellulose ((CMC) 0.5% in water for injection) was utilized as the vehicle for this study.
(§4) Test Article Administration. […] The maximum oral gavage volume administered in this study was […]. 4.4
(§5) STZ-Diabetic Rat Model of Painful Diabetic Neuropathy. Painful diabetic neuropathy is a common long-term complication of diabetes in humans that develops as a result of a sustained biochemical nerve injury. […] Following the induction of diabetes with intravenous STZ at 70-80 mg/kg, it generally takes 6-8 wks for tactile allodynia, the defining symptom of PDN, to fully develop in both rat hindpaws.
(§6) Induction of STZ-Diabetes in Rats. On day 0, rats were anaesthetized with 3% isoflurane:97% O2 and a short polyethylene cannula (0.5 mm ID, 0.8 mm OD) was inserted into the jugular vein to facilitate the intravenous (i.v.) administration of a single dose of streptozotocin (STZ: 70-80 mg/kg). After STZ injection, the cannula was removed and the jugular vein was tied off and the wound was closed. Rats received subcutaneous benzylpenicillin (60 mg) prior to surgery to prevent infection and were kept warm during surgical recovery. Rats were housed singly prior to further experimentation and were monitored daily from the time of STZ administration with regard to general health and well-being.
(§7) Von Frey Assessment of Paw Withdrawal Thresholds. Calibrated von Frey filaments were used to determine the lowest mechanical threshold required to evoke a brisk paw withdrawal reflex in the rat hindpaws. Briefly, rats were transferred individually to wire mesh testing cages (20 cm×20 cm×20 cm) and allowed to acclimatize for approximately 10-20 min prior to von Frey testing. Commencing with the von Frey filament that produced the 6 g force, the filament was applied to the plantar surface of the hindpaw until the filament buckled slightly. Absence of a response after 3 s prompted use of the next filament of increasing weight. A withdrawal response within 3 s prompted use of the next filament of decreasing weight. Filaments used produced buckling weights of 2, 4, 6, 8, 10, 12, 14, 16, 18 and 20 g. […] Tactile allodynia is regarded as being fully developed when von Frey PWTs in the injured hindpaws are <6 g.
Restoring von-Frey PWTs in the hindpaws from <6 g to pre-STZ surgery levels (12±2 g) is the treatment goal representing full reversal of tactile allodynia. If drug treatment increases PWTs above pre-surgical baseline values (i.e. >12±2 g), such a response is classified as antinociception. Before administration of STZ, baseline von Frey measurements were assessed. Following STZ administration, baseline PWTs were assessed in the hindpaws at week 8-11 to confirm the development of diabetes-induced tactile allodynia.
Dose-Response Curve for Tranilast in Drug-Naive STZ-Diabetic Rats. […]

STZ-diabetic rats [2] = assay: von Frey paw withdrawal thresholds, STZ-diabetic rats given multiple dosing regimens (washout protocol), Example 1; conditions: gabapentin 100 mg/kg s.c.
Procedure: as §1, §2, §3, §4, §5, §6, §7
Restoring von-Frey PWTs in the hindpaws from <6 g to pre-STZ surgery levels (12±2 g) is the treatment goal representing full reversal of tactile allodynia. If drug treatment increases PWTs above pre-surgical baseline values (i.e. >12±2 g), such a response is classified as antinociception. Before administration of STZ, baseline von Frey measurements were assessed. Following STZ administration, baseline PWTs were assessed in the hindpaws at week 8-11 to confirm the development of diabetes-induced tactile allodynia. […]

STZ-diabetic rats [3] = assay: Behavioural observations / adverse effects in STZ-diabetic rats; conditions: gabapentin 100 mg/kg s.c., 7 consecutive twice-daily bolus doses
Text: Behavioural Observations. STZ-diabetic rats were monitored for visible and audible signs of distress throughout the testing period. The visible signs of distress included behavioural changes such as complete immobility, movement with abnormal gait, agitation, aggression, wet dog shakes, excessive grooming, restlessness with constant movement, repeated sudden movements or staring.

[4] = gabapentin 100 mg/kg s.c., 7th twice-daily dose
[5] = gabapentin 100 mg/kg s.c., after 7th consecutive twice-daily dose

In the case of `NCC1(CC(=O)O)CCCCC1` [Gabapentin], the “Baseline PWT thresholds assessed prior to dose 1, 3, 5 and 7” value ([1]; gabapentin 100 mg/kg s.c. twice-daily) is reported as “not significantly different”, the “Mean (±SEM) von Frey Paw Withdrawal threshold assessed prior to dose” value ([1]; gabapentin 100 mg/kg s.c. twice-daily, prior to dose 1) is reported as 3.7 ± 0.6 g and the “Mean (±SEM) von Frey Paw Withdrawal threshold assessed prior to dose” value ([1]; gabapentin 100 mg/kg s.c. twice-daily, prior to dose 3) is reported as 4.0 ± 0 g. For the same compound, the “Mean (±SEM) von Frey Paw Withdrawal threshold assessed prior to dose” value ([1]; gabapentin 100 mg/kg s.c. twice-daily, prior to dose 5) was 4.7 ± 0.5 g, the “Mean (±SEM) von Frey Paw Withdrawal threshold assessed prior to dose” value ([1]; gabapentin 100 mg/kg s.c. twice-daily, prior to dose 7) was 4.5 ± 0.4 g and the “Mean (±SEM) von Frey Paw Withdrawal threshold following the 7th consecutive dose” value ([1]; gabapentin 100 mg/kg s.c. twice-daily, time 0 h (pre-dose)) was 4.5 ± 0.2 g. The “Mean (±SEM) von Frey Paw Withdrawal threshold following the 7th consecutive dose” value ([1]; gabapentin 100 mg/kg s.c. twice-daily, time 0 h (pre-dose), listed as gabapentin) was 4.5 (±0.2) g, the “Mean (±SEM) von Frey Paw Withdrawal threshold following the 7th consecutive dose” value ([1]; gabapentin 100 mg/kg s.c. twice-daily, time 0.15 h) was 5.75 ± 0.2 g and the “Mean (±SEM) von Frey Paw Withdrawal threshold following the 7th consecutive dose” value ([1]; gabapentin 100 mg/kg s.c. twice-daily, time 0.5 h) was 6.25 ± 0.2 g. The “Mean (±SEM) von Frey Paw Withdrawal threshold following the 7th consecutive dose” value ([1]; gabapentin 100 mg/kg s.c. twice-daily, time 0.75 h) was 7.5 ± 0.6 g, the “Mean (±SEM) von Frey Paw Withdrawal threshold following the 7th consecutive dose” value ([1]; gabapentin 100 mg/kg s.c. twice-daily, time 1 h) was 8.5 ± 0.5 g and the “Mean (±SEM) von Frey Paw Withdrawal threshold following the 7th consecutive dose” value ([1]; gabapentin 100 mg/kg s.c. twice-daily, time 1.25 h) was 9.0 ± 1.0 g. The “Mean (±SEM) von Frey Paw Withdrawal threshold following the 7th consecutive dose” value ([1]; gabapentin 100 mg/kg s.c. twice-daily, time 1.25 h, listed as gabapentin) was 9.0 (±1.0) g, the “Mean (±SEM) von Frey Paw Withdrawal threshold following the 7th consecutive dose” value ([1]; gabapentin 100 mg/kg s.c. twice-daily, time 1.5 h) was 9.0 ± 0.7 g and the “Mean (±SEM) von Frey Paw Withdrawal threshold following the 7th consecutive dose” value ([1]; gabapentin 100 mg/kg s.c. twice-daily, time 2 h) was 7.0 ± 0.4 g. The “Mean (±SEM) von Frey Paw Withdrawal threshold following the 7th consecutive dose” value ([1]; gabapentin 100 mg/kg s.c. twice-daily, time 3 h) was 6.5 ± 0.3 g, the “Relief of tactile allodynia in the hindpaws” value ([1]; gabapentin 100 mg/kg s.c., 7 consecutive twice-daily doses) was “significant relief of tactile allodynia” and the “Mean duration of action” value [1, 4] was greater than 3 h. The “Time of peak anti-allodynia post-dosing” value [1, 4] was 1 to 1.5 h, the “Mean (±SEM) AUC (area under the normalized PWT versus time curve)” value [1, 5] was 8.3 ± 0.4 and the “Mean (±SEM) Peak response (PWT)” value [1, 5] was 9.0 ± 1.0. The “Mean (±SEM) % MPR at peak” value ([1]; gabapentin 100 mg/kg s.c., after 7th consecutive twice-daily dose, 100% MPR = full reversal of tactile allodynia) was 75.8 ± 17.2%, the “% MPR at the time of peak effect compared with vehicle” value ([1]; gabapentin s.c. 100 mg/kg, 7th consecutive twice-daily dose) was “significantly greater than that for vehicle” and the “Relief of tactile (mechanical) allodynia in the hindpaws” value (STZ-diabetic rats [2]; 7 consecutive twice-daily doses, multiple dosing regimens) was “significant relief of tactile (mechanical) allodynia”. For the same compound, the “Mean (±SEM) PWT at the mean time of peak response” value (STZ-diabetic rats [2]; 7th twice-daily dose, 1 h post-dosing) was 11.0 (±1.0) g, the “Time of peak anti-allodynia post-dosing” value (STZ-diabetic rats [2]; 7th twice-daily dose, multiple dosing regimens) was 0.75 to 1.25 h and the “Mean (±SEM) PWT pre-dose” value (STZ-diabetic rats [2]; 7th twice-daily dose, pre-dose) was 4.5 (±0.5) g. The “Adverse (behavioural) effects” value (STZ-diabetic rats [3]) was “no discernible adverse effects; also recorded: did not produce discernible adverse behavioural effects”.
